target: T1, recombinant human pancreatic GLK (Homo sapiens, UniProt P35557); experiment: biochemical
T1 sequence (P35557 1-465): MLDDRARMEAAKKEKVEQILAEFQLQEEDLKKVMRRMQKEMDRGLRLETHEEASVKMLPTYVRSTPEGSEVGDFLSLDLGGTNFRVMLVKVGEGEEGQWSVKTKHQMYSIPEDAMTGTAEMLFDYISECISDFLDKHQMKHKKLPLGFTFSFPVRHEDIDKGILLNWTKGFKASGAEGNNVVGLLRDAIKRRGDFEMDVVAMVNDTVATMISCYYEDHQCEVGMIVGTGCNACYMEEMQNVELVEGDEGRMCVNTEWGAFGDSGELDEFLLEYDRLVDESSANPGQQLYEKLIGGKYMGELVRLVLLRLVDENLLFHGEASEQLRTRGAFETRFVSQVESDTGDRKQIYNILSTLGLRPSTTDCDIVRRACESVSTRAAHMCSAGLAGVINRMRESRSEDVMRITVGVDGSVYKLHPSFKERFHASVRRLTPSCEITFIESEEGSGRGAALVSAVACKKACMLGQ

| Structure (SMILES) | EC50 [nM] |
| --- | --- |
| COCCC(Oc1ncnc2c1cnn2-c1ccc(F)cc1F)C(=O)Nc1ccc(C)cn1 (stereo not shown) [Example 25, 2-{[1-(2,4-Difluorophenyl)-1H-pyrazolo[3,4-d]pyrimidin-4-yl]oxy}-4-methoxy-N-(5-methylpyridin-2-yl)butanamide] | 1200 |
| COC[C@H](Oc1ncnc2c1cnn2-c1ccccc1OC)C(=O)Nc1ccc(C)cn1 [Example 6, (S)-3-methoxy-2-{[1-(2-methoxyphenyl)-1H-pyrazolo[3,4-d]pyrimidin-4-yl]oxy}-N-(5-methylpyridin-2-yl)propanamide] | 680 |
| Cc1cnc(NC(=O)[C@H](CN2CC(O)C2)Oc2ncnc3c2cnn3-c2ncccc2Cl)s1 [Example 249, (2S)-2-[1-(3-chloro-2-pyridyl)pyrazolo[3,4-d]pyrimidin-4-yl]oxy-3-(3-hydroxyazetidin-1-yl)-N-(5-methylthiazol-2-yl)propanamide] | 590 |
| N#Cc1cccc(Cl)c1-n1ncc2c(O[C@@H](COCCO)C(=O)Nc3ccc(Cl)cn3)ncnc21 [Example 174, (2S)-2-(1-(2-chloro-6-cyanophenyl)-1H-pyrazolo[3,4-d]pyrimidin-4-yloxy)-N-(5-chloropyridin-2-yl)-3-(2-hydroxyethoxy)propanamide] | 230 |
| COC[C@H](Oc1ncnc2c1cnn2-c1ncccc1Cl)C(=O)Nc1ccc(C)cn1 [Example 89, (2S)-2-(1-(3-chloropyridin-2-yl)-1H-pyrazolo[3,4-d]pyrimidin-4-yloxy)-3-methoxy-N-(5-methylpyridin-2-yl)propanamide] | 1500 |
| CCOC[C@H](Oc1ncnc2c1cnn2-c1cc(C)ccc1C)C(=O)Nc1ccc(C#N)cn1 [Example 186, (2S)—N-(5-cyanopyridin-2-yl)-2-(1-(2,5-dimethylphenyl)-1H-pyrazolo[3,4-d]pyrimidin-4-yloxy)-3-ethoxypropanamide] | 1800 |
| Cc1c(C#N)cccc1-n1ncc2c(O[C@@H](COCCO)C(=O)Nc3ccc(Cl)cn3)ncnc21 [Example 209, (2S)—N-(5-chloropyridin-2-yl)-2-(1-(3-cyano-2-methylphenyl)-1H-pyrazolo[3,4-d]pyrimidin-4-yloxy)-3-(2-hydroxyethoxy)propanamide] | 1500 |
| O=C(Nc1ccc(F)cn1)[C@H](CN1CC(O)C1)Oc1ncnc2c1cnn2-c1c(F)cccc1Cl [Example 229, (2S)-2-[1-(2-chloro-6-fluoro-phenyl)pyrazolo[3,4-d]pyrimidin-4-yl]oxy-N-(5-fluoro-2-pyridyl)-3-(3-hydroxyazetidin-1-yl)propanamide] | 110 |
| Cc1cnc(NC(=O)[C@H](COC2CCC2)Oc2ncnc3c2cnn3-c2ncccc2C(F)(F)F)cn1 [Example 137, (2S)-3-cyclobutyloxy-N-(5-methylpyrazin-2-yl)-2-[1-[3-(trifluoromethyl)pyridin-2-yl]pyrazolo[4,5-e]pyrimidin-4-yl]oxypropanamide] | 350 |
| Cc1cccnc1-n1ncc2c(O[C@@H](COC(C)C)C(=O)Nc3ccc(Cl)cn3)ncnc21 [Example 127b, (2S)—N-(5-chloropyridin-2-yl)-3-isopropoxy-2-(1-(3-methylpyridin-2-yl)-1H-pyrazolo[3,4-d]pyrimidin-4-yloxy)propanamide] | 840 |
| Cc1cnc(NC(=O)[C@H](COC(C)C)Oc2ncnc3c2cnn3-c2ccccc2Cl)s1 [Example 111a, (2S)-2-[1-(2-chlorophenyl)pyrazolo[4,5-e]pyrimidin-4-yl]oxy-3-isopropoxy-N-(5-methylthiazol-2-yl)propanamide] | 210 |
| O=C(Nc1ccncn1)[C@H](CCO)Oc1ncnc2c1cnn2-c1ncccc1Cl [Example 143f, (2S)-2-[1-(3-chloro-2-pyridyl)pyrazolo[4,5-e]pyrimidin-4-yl]oxy-4-hydroxy-N-pyrimidin-4-yl-butanamide] | 980 |
| O=C(Nc1ccc(F)cn1)[C@H](CN1CC(O)C1)Oc1ncnc2c1cnn2-c1c(Cl)cccc1Cl [Example 230, (2S)-2-[1-(2,6-dichlorophenyl)pyrazolo[3,4-d]pyrimidin-4-yl]oxy-N-(5-fluoro-2-pyridyl)-3-(3-hydroxyazetidin-1-yl)propanamide] | 110 |
